What was measured:
SW620 [1] = test: Combination assay, SW620; format: cell-based, human; settings: Homo sapiens, SW-620; SW620, chemotherapeutic alone; read-out: Chemo GI50
Experimental: (§1) The combination index (CI) of combinations of certain example compounds and various chemotherapeutic agents in the CellTitetI-Glo® in vitro cell proliferation assays may be tested. A combination index score is calculated by the Chou and Talalay method (CalcuSyn software, Biosoft). The strength of synergy is scored using the ranking system Chou and Talalay: CI less than 0.8 indicates synergy, CI between 0.8 and 1.2 indicates additivity and CI greater than 1.2 indicates antagonism.
(§2) The EC50 values of representative combinations are also calculated. The individually measured EC50 values of the chemotherapeutic agent and the example compounds are compared to the EC50 value of the combination. The cell lines are characterised by tumor type. Combination assays are performed as described in: “Pim 1 kinase inhibitor ETP-45299 suppresses cellular proliferation and synergizes with PI3K inhibition”. Blanco-Aparicio, Carmen; Collazo, Ana Maria Garcia; Oyarzabal, Julen; Leal, Juan F.; Albaran, Maria Isabel; Lima, Francisco Ramos; Pequeno, Belen; Ajenjo, Nuria; Becerra, Mercedes; Alfonso, Patricia; Reymundo, Maria Isabel; Palacios, Irene; Mateos, Genoveva; Quinones, Helena; Corrionero, Ana; Carnero, Amancio; Pevarello, Paolo; Lopez, Ana Rodriguez; Fominaya, Jesus; Pastor, Joaquin; Bischoff, James R. Cancer Letters (Shannon, Ireland) 2011, 300(2), 145-153

HCT116 = test: Combination assay, HCT116; format: cell-based; settings: Homo sapiens, HCT-116; HCT116, chemotherapeutic alone; read-out: Chemo GI50
Experimental: as §1, §2

DU145 = test: Combination assay, DU145; format: cell-based; settings: Homo sapiens, DU-145; DU145, chemotherapeutic alone; read-out: Chemo GI50
Experimental: as §1
The EC50 values of representative combinations are also calculated. The individually measured EC50 values of the chemotherapeutic agent and the example compounds are compared to the EC50 value of the combination. The cell lines are characterised by tumor type. […] Blanco-Aparicio, Carmen; Collazo, Ana Maria Garcia; Oyarzabal, Julen; Leal, Juan F.; Albaran, Maria Isabel; Lima, Francisco Ramos; Pequeno, Belen; Ajenjo, Nuria; Becerra, Mercedes; Alfonso, Patricia; Reymundo, Maria Isabel; Palacios, Irene; Mateos, Genoveva; Quinones, Helena; Corrionero, Ana; Carnero, Amancio; Pevarello, Paolo; Lopez, Ana Rodriguez; Fominaya, Jesus; Pastor, Joaquin; Bischoff, James R. Cancer Letters (Shannon, Ireland) 2011, 300(2), 145-153

Molm13 = test: In vitro cell proliferation assay (CellTiter-Glo), Molm13; format: cell-based; settings: Homo sapiens, MOLM-13; growth inhibition, semiquantitative; read-out: GI50 Molm13
Experimental: (§3) The in vitro potency of the compounds was measured by the cell proliferation assay CellTiter-Glo® Luminescent Cell Viability Assay, commercially available from Promega Corp., Madison, Wis. This homogeneous assay method is based on the recombinant expression of Coleoptera luciferase (U.S. Pat. No. 5,583,024; U.S. Pat. No. 5,674,713; U.S. Pat. No. 5,700,670) and determines the number of viable cells in culture based on quantitation of the ATP present, an indicator of metabolically active cells (Crouch et al (1993) J. Immunol. Meth. 160:81-88; U.S. Pat. No. 6,602,677). The CellTiterGlo® Assay was conducted […] it amenable to automated high throughput screening (HTS) (Cree et al (1995) AntiCancer Drugs 6:398-404).
(§4) The homogeneous assay procedure involves adding the single reagent (CellTiter-Glo® Reagent) directly to cells cultured in serum-supplemented medium. Cell washing, removal of medium and multiple pipetting steps are not required. The system detects as few as 15 cells/well in a 96-well format in 10 minutes after adding reagent and mixing.
(§5) The homogeneous “add-mix-measure” format results in cell lysis and generation of a luminescent signal proportional to the amount of ATP present. The amount of ATP is directly proportional to the number of cells present in culture. The CellTiter-Glo® Assay generates a “glow-type” luminescent signal, produced by the luciferase reaction, which has a half-life generally greater than five hours, depending on cell type and medium used. Viable cells are reflected in relative luminescence units (RLU). The substrate, Beetle Luciferin, is oxidatively decarboxylated by recombinant firefly luciferase with concomitant conversion of ATP to AMP and generation of photons. The extended half-life eliminates the need to use reagent injectors and provides flexibility for continuous or batch mode processing of multiple plates. This cell proliferation assay can be used with various multiwell formats, e.g. 96 or 384 well format. Data can be recorded by luminometer or CCD camera imaging device. The luminescence output is presented as relative light units (RLU), measured over time.

SW620 [2] = test: In vitro cell proliferation assay (CellTiter-Glo), SW620; format: cell-based, human; settings: Homo sapiens, SW-620; growth inhibition, semiquantitative; read-out: GI50 SW620
Experimental: as §3, §4, §5

CDK19/Cyclin C = CDK19/Cyclin C (Homo sapiens (Human), UniProt Q9BWU1); test: CDK19/Cyclin C binding assay (LanthaScreen Eu-Kinase Binding Assay); settings: read-out: CDK19-CYCC IC50
Experimental: The binding assay relies on the LanthaScreen™ Eu-Kinase Binding Assay (Invitrogen).
Assay conditions were as indicated by the kit manufacturers with the following adaptations: • Assay buffer: 50 mM HEPES, pH 7.5, 1 mM EGTA, 0.01% Brij-35, 10 mM MgCl2 • Assay volume: 20 μl • Incubation time and temperature: 60 min at 25° C. • Cdk19-Cyclin C concentration: 2 nM • Tracer concentration: 20 nM • (Eu)-labelled anti-GST antibody concentration: 2 nM • Tested compound: Serial 1:3 dilutions • Final DMSO concentration in the assay: 1%
(§6) Assays were performed in 384-well plates. The final read out was generated using an EnVision plate reader (Perkin-Elmer).

CDK8/Cyclin C = CDK8/Cyclin C (Homo sapiens (Human), UniProt P49336); test: CDK8/Cyclin C binding assay (LanthaScreen Eu-Kinase Binding Assay); settings: binding assay
Experimental: The enzyme has been purchase from Invitrogen (PV4402) as a dimer of full-length His-tagged recombinant human proteins.
as §6

intracellular CDK8 [3] = biological target: T1, intracellular CDK8 (Homo sapiens (Human), UniProt P49336); test: Cellular CDK8 inhibition assay, western blot P-STAT1 (S727) in IFN-γ treated SW620 cells; format: cell-based; settings: SW620, IFNγ treated, semiquantitative; read-out: SW620 P-STAT1(S727) w IFNγ
Experimental: Compounds can be screened for their ability to inhibit intracellular CDK8 using a western blot assay to detect phosphorylation of the CDK8 substrate STAT1 (S727) in IFN-γ treated cells. SW620 cells are plated at 1*10^6 cells per well in 6-well plates (Solmeglas 13118) in RPMI media (Sigma-Aldrich R6504) supplemented with 10% foetal bovine serum (Sigma-Aldrich F7524), Penicillin/Streptomycin solution diluted 1:100 (Gibco 15070-063), and fungizone (Gibco, 15290-018), and allowed to adhere overnight at 37° C. in 5% CO2. Compounds are then added to the cell media from a final concentration of 10 μM in 10-fold serial dilutions and the cells are incubated at 37° C. in 5% CO2. After 1 hour, IFNγ (R&D systems Ref. RYD-285-IF-100) is added to a final concentration of […]. After 3 hours of treatment with IFNγ, the cells are washed in PBS, lysed adding 100 μl of protein lysis buffer (62.5 mM Tris pH 6.8 al 6.25%, 2% SDS y 10% glycerol) incubation 10 minutes at room temperature and heating at 95° C. 10 min. The protein content of the lysates is determined by DC protein assay (Biorad, Ref. 5000116). The proteins are resolved by SDS-PAGE and transferred to nitrocellulose membrane (VWR International eurolab, Ref. 732-4007). The membranes are incubated overnight at 4° C. with antibodies specific for total STAT1 (BD Transduction laboratory #610115), phosphoserine-727 STAT1 (Cell Signaling Ref. 9177) they are washed and then incubated with IRDye800 conjugated anti-mouse (Pierce/Cultek, 35521) and Alexa Fluor 680 goat anti-rabbit IgG secondary antibodies (Invitrogen, A21076). The bands are visualized and quantified using an Odyssey infrared imaging system (Li-Cor Biosciences). The percentage of phosphorylated STAT1 vs total STAT1 in cells treated with IFNγ is taken as hundred percent of phosphorylation. The percentage of STAT1 phosphorylation is finally plotted against concentration for each compound and EC50s for intracellular CDK8 inhibition are calculated using ActivityBase from IDBS.

MDA-MB-231 = test: In vitro cell proliferation assay (CellTiter-Glo), MDA-MB-231; format: cell-based; settings: Homo sapiens, MDA-MB-231; growth inhibition, semiquantitative; read-out: GI50 MDA-MB-231
Experimental: as §3, §4, §5

MV4:11 = test: In vitro cell proliferation assay (CellTiter-Glo), MV4:11; format: cell-based; settings: Homo sapiens, MV4-11; growth inhibition, semiquantitative; read-out: GI50 MV4:11
Experimental: as §3, §4, §5

Haspin kinase = Haspin kinase (Homo sapiens (Human), UniProt Q8TF76); test: Haspin kinase assay (ADP-Glo); format: biochemical; settings: ATP 150 μM
From the text: The kinase assay relies on ADP-Glo^KM biochemical kinase assay (Promega). This is a luminescent kinase assay that measures ADP formed from a kinase reaction. Then ADP is converted into ATP, which is transformed into a light signal by Ultra-Glo™ Luciferase. The luminescent signal positively correlates with kinase activity. The assay measures the intrinsic ATPase activity (in the absence of peptidic substrate as phosphate acceptor).
The enzyme was purchase from Invitrogen (PV5708) as the kinase domain of GST tagged recombinant human proteins.
Assay conditions were as indicated by the kit manufacturers with the following adaptations: • Assay buffer: 15 mM HEPES pH 7.4, 20 mM NaCl, 1 mM EGTA, 0.02% Tween 20, 10 mM MgCl2, 0.1 mg/ml BGG • Assay volume: 20 μl • Incubation time and temperature: 60 min at 30° C. • Haspin concentration: 20 nM • ATP concentration: 150 μM • Tested compound: Serial 1:3 dilutions • Final DMSO concentration in the assay: 1%
Assays were performed in 384-well plates. The final read out was generated using an EnVision plate reader (Perkin-Elmer). Luminescent relative units are normalized against the control activity included for each compound (i.e., 100% Haspin activity, without compound) and the percentage of inhibition is calculated.

intracellular CDK8 [4] = biological target: T1, intracellular CDK8; test: Endogenous phosphoSTAT1 inhibition in SW620 cells growing in 10% FBS; format: cell-based; settings: semiquantitative, read-out: SW620 P-STAT1(S727)
Experimental: Endogenous phosphoSTAT1 inhibition can be screened in cells growing in 10% FBS. Cells are plated as described before and treated for 8 h with compounds as described before. Then cells are lysated and phospho STAT1 is evaluated as described before. The percentage of phosphorylated STAT1 vs total STAT1 in cells treated with DMSO is taken as hundred percent of phosphorylation. The percentage of STAT1 phosphorylation is finally plotted against concentration for each compound and EC50s for intracellular CDK8 inhibition are calculated using ActivityBase from IDBS.

CDK19/Cyclin C, sequence (Q9BWU1 whole entry): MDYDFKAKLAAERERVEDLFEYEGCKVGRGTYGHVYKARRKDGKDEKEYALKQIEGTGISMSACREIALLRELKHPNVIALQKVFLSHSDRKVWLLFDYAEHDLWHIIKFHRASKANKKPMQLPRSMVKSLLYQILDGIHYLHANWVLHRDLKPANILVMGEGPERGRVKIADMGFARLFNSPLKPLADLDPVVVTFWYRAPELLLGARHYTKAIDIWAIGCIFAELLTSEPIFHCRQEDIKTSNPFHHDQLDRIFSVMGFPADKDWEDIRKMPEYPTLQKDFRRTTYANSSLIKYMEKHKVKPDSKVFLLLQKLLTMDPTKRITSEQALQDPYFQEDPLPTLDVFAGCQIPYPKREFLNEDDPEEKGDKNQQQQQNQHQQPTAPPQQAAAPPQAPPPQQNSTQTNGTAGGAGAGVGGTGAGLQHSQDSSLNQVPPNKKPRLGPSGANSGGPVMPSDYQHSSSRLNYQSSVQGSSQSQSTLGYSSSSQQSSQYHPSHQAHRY
CDK19/Cyclin C, sequence (P24863 whole entry partner): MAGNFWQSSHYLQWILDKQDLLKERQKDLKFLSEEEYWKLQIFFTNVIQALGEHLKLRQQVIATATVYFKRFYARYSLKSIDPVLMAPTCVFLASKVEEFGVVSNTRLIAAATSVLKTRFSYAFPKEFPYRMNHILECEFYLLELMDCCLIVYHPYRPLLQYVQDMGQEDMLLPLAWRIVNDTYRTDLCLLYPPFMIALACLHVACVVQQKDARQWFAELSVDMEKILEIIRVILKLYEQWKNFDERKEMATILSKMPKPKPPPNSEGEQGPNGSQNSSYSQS
CDK8/Cyclin C, sequence (P49336 whole entry): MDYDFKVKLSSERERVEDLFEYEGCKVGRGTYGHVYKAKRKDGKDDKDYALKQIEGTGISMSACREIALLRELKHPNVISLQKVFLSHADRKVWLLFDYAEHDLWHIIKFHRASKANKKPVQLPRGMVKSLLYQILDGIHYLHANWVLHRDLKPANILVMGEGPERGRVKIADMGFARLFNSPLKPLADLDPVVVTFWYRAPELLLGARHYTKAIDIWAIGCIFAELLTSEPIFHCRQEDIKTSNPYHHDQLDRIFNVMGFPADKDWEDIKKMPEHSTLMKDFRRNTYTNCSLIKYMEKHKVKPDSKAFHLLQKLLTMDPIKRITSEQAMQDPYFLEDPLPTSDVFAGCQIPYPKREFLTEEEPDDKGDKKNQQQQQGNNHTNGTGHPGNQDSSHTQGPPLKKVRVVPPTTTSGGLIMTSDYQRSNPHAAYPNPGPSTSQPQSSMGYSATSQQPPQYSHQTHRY
CDK8/Cyclin C, sequence (P24863 whole entry partner): as the sequence (P24863 whole entry partner) above
T1 sequence (P49336 whole entry): as the sequence (P49336 whole entry) above
T1 sequence (P24863 whole entry partner): as the sequence (P24863 whole entry partner) above
T1 sequence (Q93074 whole entry partner): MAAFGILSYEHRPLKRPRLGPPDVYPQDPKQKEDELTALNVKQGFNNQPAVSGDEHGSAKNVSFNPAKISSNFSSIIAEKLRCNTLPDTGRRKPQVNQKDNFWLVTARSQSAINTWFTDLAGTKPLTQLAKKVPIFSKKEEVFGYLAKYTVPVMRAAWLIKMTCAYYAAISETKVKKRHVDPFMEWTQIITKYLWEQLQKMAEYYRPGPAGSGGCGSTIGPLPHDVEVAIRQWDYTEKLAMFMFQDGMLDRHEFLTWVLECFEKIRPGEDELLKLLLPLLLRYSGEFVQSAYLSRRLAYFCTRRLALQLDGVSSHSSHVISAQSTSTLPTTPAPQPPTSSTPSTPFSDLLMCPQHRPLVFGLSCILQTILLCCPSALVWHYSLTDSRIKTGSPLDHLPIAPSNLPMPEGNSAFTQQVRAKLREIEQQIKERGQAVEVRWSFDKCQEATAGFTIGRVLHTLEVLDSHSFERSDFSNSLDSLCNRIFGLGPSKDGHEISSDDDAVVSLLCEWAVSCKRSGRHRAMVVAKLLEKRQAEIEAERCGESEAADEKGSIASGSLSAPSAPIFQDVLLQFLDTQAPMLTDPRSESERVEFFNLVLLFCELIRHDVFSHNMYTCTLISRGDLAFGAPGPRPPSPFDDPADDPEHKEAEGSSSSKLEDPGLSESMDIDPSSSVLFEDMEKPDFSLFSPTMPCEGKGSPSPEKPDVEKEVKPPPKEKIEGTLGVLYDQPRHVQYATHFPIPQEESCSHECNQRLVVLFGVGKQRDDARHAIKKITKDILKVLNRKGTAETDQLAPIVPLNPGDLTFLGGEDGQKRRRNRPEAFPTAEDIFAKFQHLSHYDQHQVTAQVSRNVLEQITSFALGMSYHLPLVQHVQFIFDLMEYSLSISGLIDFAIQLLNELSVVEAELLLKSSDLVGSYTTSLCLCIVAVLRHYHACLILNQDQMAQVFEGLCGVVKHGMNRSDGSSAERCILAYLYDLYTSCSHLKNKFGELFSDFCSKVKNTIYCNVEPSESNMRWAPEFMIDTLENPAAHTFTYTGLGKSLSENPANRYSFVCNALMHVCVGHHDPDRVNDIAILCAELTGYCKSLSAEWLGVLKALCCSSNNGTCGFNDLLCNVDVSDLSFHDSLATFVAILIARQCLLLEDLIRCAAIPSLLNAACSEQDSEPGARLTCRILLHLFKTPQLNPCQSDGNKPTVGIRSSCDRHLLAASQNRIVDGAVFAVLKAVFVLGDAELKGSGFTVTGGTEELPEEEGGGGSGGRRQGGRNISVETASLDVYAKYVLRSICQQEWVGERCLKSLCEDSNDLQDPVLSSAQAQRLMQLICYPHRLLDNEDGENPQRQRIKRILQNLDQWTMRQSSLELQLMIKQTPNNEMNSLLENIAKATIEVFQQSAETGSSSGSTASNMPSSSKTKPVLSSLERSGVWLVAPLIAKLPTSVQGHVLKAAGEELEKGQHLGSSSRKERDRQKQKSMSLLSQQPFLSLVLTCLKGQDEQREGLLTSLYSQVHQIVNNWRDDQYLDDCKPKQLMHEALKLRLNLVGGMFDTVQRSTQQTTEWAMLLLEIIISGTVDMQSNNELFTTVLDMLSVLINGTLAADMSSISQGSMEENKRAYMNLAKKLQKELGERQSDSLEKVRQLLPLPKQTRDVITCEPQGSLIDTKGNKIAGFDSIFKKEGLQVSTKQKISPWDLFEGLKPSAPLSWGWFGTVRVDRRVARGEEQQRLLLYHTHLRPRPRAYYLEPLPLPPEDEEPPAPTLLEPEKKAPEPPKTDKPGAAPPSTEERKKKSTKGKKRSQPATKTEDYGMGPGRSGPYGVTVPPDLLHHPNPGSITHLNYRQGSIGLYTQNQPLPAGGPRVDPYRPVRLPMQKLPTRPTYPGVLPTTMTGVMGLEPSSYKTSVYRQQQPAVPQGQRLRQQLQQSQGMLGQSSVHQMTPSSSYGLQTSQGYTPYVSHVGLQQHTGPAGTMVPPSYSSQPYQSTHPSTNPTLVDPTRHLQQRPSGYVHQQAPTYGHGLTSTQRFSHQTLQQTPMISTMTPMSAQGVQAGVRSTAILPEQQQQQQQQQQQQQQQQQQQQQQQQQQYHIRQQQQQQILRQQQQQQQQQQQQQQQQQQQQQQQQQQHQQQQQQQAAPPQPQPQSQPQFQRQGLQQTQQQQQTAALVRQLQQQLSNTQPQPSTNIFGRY
Haspin kinase, sequence (Q8TF76 484-798): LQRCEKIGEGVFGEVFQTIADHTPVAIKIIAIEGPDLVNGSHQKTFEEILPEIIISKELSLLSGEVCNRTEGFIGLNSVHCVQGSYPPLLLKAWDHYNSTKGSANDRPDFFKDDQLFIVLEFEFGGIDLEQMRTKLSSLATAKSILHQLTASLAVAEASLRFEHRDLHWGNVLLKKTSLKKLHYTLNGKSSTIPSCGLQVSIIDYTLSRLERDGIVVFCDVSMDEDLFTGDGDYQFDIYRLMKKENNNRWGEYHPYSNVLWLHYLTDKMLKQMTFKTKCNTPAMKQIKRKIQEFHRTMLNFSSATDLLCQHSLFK

Row | GI50 (SW620 [1]) [µM] | GI50 (HCT116) [µM] | GI50 (DU145) [µM] | GI50 (Molm13) [µM] | GI50 (SW620 [2]) [µM] | IC50 (CDK19/Cyclin C) [µM] | IC50 (CDK8/Cyclin C) [µM] | EC50 (intracellular CDK8 [3]) [µM] | GI50 (MDA-MB-231) [µM] | GI50 (MV4:11) [µM] | IC50 (Haspin kinase) [µM] | EC50 (intracellular CDK8 [4]) [µM] | SMILES
1 | 0.5 | 12.5 | 12.5 |  |  |  |  |  |  |  |  |  | COc1cc(Nc2ncc3c(n2)-c2ccc(Cl)cc2C(c2c(F)cccc2OC)=NC3)ccc1C(=O)O [Alisertib, alisertib, reference compound]
2 | 0.005 | 0.005 |  |  |  |  |  |  |  |  |  |  | CC(=O)O[C@H]1C(=O)[C@@]2(C)[C@H]([C@H](OC(=O)c3ccccc3)[C@]3(O)C[C@H](OC(=O)[C@H](O)[C@@H](NC(=O)c4ccccc4)c4ccccc4)C(C)=C1C3(C)C)[C@]1(OC(C)=O)CO[C@@H]1C[C@@H]2O [Taxol, paclitaxel, reference compound]
3 |  |  |  | < 1 | < 1 | 0.0873 | 0.0193 | < 0.5 | 1 to 10 | < 1 |  |  | NC(=O)c1cc2c([nH]1)-c1ccncc1O[C@@H]2C1CCCCC1 (single isomer, unassigned) [Example 69]
4 |  |  |  | < 1 | 1 to 10 | 0.00141 | 0.000278 |  | 1 to 10 | < 1 | 0.0098 | < 0.5 | Cn1c(C(N)=O)cc2c1-c1ccncc1OC21CCCCC1 [Example 83]

Source: patent US10208056B2, “Condensed tricyclic compounds as protein kinase inhibitors” (FUNDACIÓN DEL SECTOR PÚBLICO ESTATAL CENTRO NACIONAL DE …, priority 2015, dated 2019)
